Results reported in patent publication US10104891B2 (priority 2014, dated 2018).

Tests used:
Assay type in all cases: in vivo
Plasmopara viticola = experiment: Test 3: control effect against grape downy mildew; conditions: control value vs untreated section; for pest or weed control at 4 µg/mL: Plasmopara viticola, 120 h
Experimental: (§1) A 10% wettable powder created according to the Pharmaceutical Formulation Example 1 was diluted with a Tween20 solution prepared to a concentration of 1/5000, then the compound of formula [1] was prepared to a concentration of 4 ppm. Further, the compound of formula [1] in Test 4 was adjusted to a concentration of 1,000 ppm.
<Test 3 Test of Control Effect Against Grape Downy Mildew>
(§2) Test suspension was applied to grape seedling (species: Neomuscat) in an amount of 20 ml per seedling. One day after application, zoospore suspension of Plasmopara viticola adjusted to a concentration of 1.0×10^4 units/ml was misted/inoculated, and the seedlings were incubated in a moist chamber adjusted to 22° C. for 16 hr. Then, the onset of the disease was induced in the chamber, and the lesion area rate on the leaves 5 days after inoculation was investigated to compute the control value using the formula below. control value={1−onset area rate of the leaves that were applied the test agent/onset area rate of untreated leaves}×100 Computational formula of the control value: […]

Phytophthora infestans = experiment: whole plant or invertebrate; conditions: for control value (Test 1): tomato late blight, control value vs untreated section; for pest or weed control at 4 µg/mL: Phytophthora infestans, in Solanum lycopersicum, 96 h, read-out: control value (Test 1)
[1] = test system: Pseudoperonospora cubensis; experiment: Test 2: control effect against cucumber downy mildew; conditions: control value vs untreated section; for pest or weed control at 4 µg/mL: Pseudoperonospora cubensis, 120 h
Experimental: as §1
<Test 2 Test of Control Effect Against Cucumber Downy Mildew>
as §2, with “cucumber at the 2 leaf stage” for “grape seedling”, “Sagami hanjiro)” for “Neomuscat)”, “Pseudoperonospora cubensis” for “Plasmopara viticola”

Structure (SMILES)	control value (Test 3) (Plasmopara viticola)	control value (Test 1) (Phytophthora infestans)	control value (Test 2) [1]	pest or weed control at 4 µg/mL (Plasmopara viticola) [%]	pest or weed control at 4 µg/mL (Phytophthora infestans) [%]	pest or weed control at 4 µg/mL [1] [%]
CC1OC(c2csc(C3CCN(C(=O)Cn4nc(C(F)F)cc4C(F)F)CC3)n2)OCc2ccccc21 (mixture of isomers) [Compound 1-75]	100	100	100			
Cc1cc(C(F)(F)F)nn1CC(=O)N1CCC(c2nc(C3OCc4ccccc4CO3)cs2)CC1 [Compound 1-1]	100	100	100			
Cc1cc(C(F)(F)F)nn1CC(=O)N1CCC(c2nc(C3OCc4cccc(F)c4CO3)cs2)CC1 (stereo not drawn) [Compound 1-2]	100	100	100			
Cc1cc2c(cc1C)COC(c1csc(C3CCN(C(=O)Cn4nc(C(F)(F)F)cc4C)CC3)n1)OC2 [Compound 1-4]	100	100	100			
Cc1cc(C(F)(F)F)nn1CC(=O)N1CCC(c2nc(C3OCc4cc(Cl)c(Cl)cc4CO3)cs2)CC1 [Compound 1-5]	100	100	100			
CCS(=O)(=O)Oc1cccc2c1COC(c1csc(C3CCN(C(=O)Cn4nc(C(F)(F)F)cc4C)CC3)n1)OC2 (stereo not drawn) [Compound 1-7]	100	100	100			
Cc1cc(C(F)(F)F)nn1CC(=O)N1CCC(c2nc(C3OCc4ccc(OS(C)(=O)=O)cc4CO3)cs2)CC1 (stereo not drawn) [Compound 1-9]	100	100	80			
Cc1cc(C(F)(F)F)nn1CC(=O)N1CCC(c2nc(C3OCc4cc5ccccc5cc4CO3)cs2)CC1 [Compound 1-10, 4-[4-(1,5-dihydro-3H-2,4-naphthodioxepin-3-yl)-2-thiazolyl]-1-[2-[5-methyl-3-(trifluoromethyl)-1H-pyrazole-1-yl]acetyl]piperidine]	100	100	100			
Cc1cc(C(F)(F)F)nn1CC(=O)N1CCC(c2nc(C3OCc4cccc([N+](=O)[O-])c4CO3)cs2)CC1 (stereo not drawn) [Compound 1-12]	100	100	100			
Cc1cc(C(F)(F)F)nn1CC(=O)N1CCC(c2nc(C3OCc4cccc(OS(=O)(=O)C5CC5)c4CO3)cs2)CC1 (stereo not drawn) [Compound 1-13]	100	100	100			
Cc1cccc2c1COC(c1csc(C3CCN(C(=O)Cn4nc(C(F)(F)F)cc4C)CC3)n1)OC2 (stereo not drawn) [Compound 1-14]	100	100	100			
Cc1cc(C(F)(F)F)nn1CC(=O)N1CCC(c2nc(C3OCc4ccc(C(F)(F)F)cc4CO3)cs2)CC1 (stereo not drawn) [Compound 1-16]	100	100	100			
Cc1cc(C(F)(F)F)nn1CC(=O)N1CCC(c2nc(C3OCc4c(F)c(F)c(F)c(F)c4CO3)cs2)CC1 [Compound 1-17]	100	100	100			
Cc1cc(C(F)(F)F)nn1CC(=O)N1CCC(c2nc(C3OCc4ccccc4C(C)O3)cs2)CC1 (stereo not drawn) [Compound 1-18]	100	100	100			
Cc1ccc(OS(C)(=O)=O)c2c1COC(c1csc(C3CCN(C(=O)Cn4nc(C(F)(F)F)cc4C)CC3)n1)OC2 (stereo not drawn) [Compound 1-19]	100	100	100			
Cc1ccc2c(c1)COC(c1csc(C3CCN(C(=O)Cn4nc(C(F)(F)F)cc4C)CC3)n1)OC2 (stereo not drawn) [Compound 1-20]	100	100	100			
COc1ccc(Br)c2c1COC(c1csc(C3CCN(C(=O)Cn4nc(C(F)(F)F)cc4C)CC3)n1)OC2 (stereo not drawn) [Compound 1-24]	100	100	100			

Structure (SMILES)	control value (Test 3) (Plasmopara viticola)	control value (Test 1) (Phytophthora infestans)	control value (Test 2) [1]	pest or weed control at 4 µg/mL (Plasmopara viticola) [%]	pest or weed control at 4 µg/mL (Phytophthora infestans) [%]	pest or weed control at 4 µg/mL [1] [%]
CCCCCCCCS(=O)(=O)Oc1cccc2c1COC(c1csc(C3CCN(C(=O)Cn4nc(C(F)(F)F)cc4C)CC3)n1)OC2 (stereo not drawn) [Compound 1-25]	100	100	100			
COc1ccc(OS(C)(=O)=O)c2c1COC(c1csc(C3CCN(C(=O)Cn4nc(C(F)(F)F)cc4C)CC3)n1)OC2 (stereo not drawn) [Compound 1-26]	100	100	100			
Cc1cc(C(F)(F)F)nn1CC(=O)N1CCC(c2nc(C3OCc4ccc([N+](=O)[O-])cc4CO3)cs2)CC1 (stereo not drawn) [Compound 1-27]	100	100	100			
Cc1cc(C(F)(F)F)nn1CC(=O)N1CCC(c2nc(C3OCc4cccc(OS(=O)(=O)C(C)C)c4CO3)cs2)CC1 (stereo not drawn) [Compound 1-28]	100	100	100			
CCS(=O)(=O)Oc1ccc2c(c1)COC(c1csc(C3CCN(C(=O)Cn4nc(C(F)(F)F)cc4C)CC3)n1)OC2 (stereo not drawn) [Compound 1-29]	100	100	90			
Cc1cc(C(F)(F)F)nn1CC(=O)N1CCC(c2nc(C3OCc4cccc(OS(=O)(=O)CCC(F)(F)F)c4CO3)cs2)CC1 (stereo not drawn) [Compound 1-30]	100	100	100			
Cc1cc(C(F)(F)F)nn1CC(=O)N1CCC(c2nc(C3OCc4cc5c(cc4CO3)CCC5)cs2)CC1 [Compound 1-31]	100	100	100			
O=C(Cn1nc(C(F)F)cc1C(F)F)N1CCC(c2nc(C3OCc4cccc(F)c4CO3)cs2)CC1 (stereo not drawn) [Compound 1-35]	100	100	100			
COC(=O)Oc1cccc2c1COC(c1csc(C3CCN(C(=O)Cn4nc(C(F)(F)F)cc4C)CC3)n1)OC2 (stereo not drawn) [Compound 1-37]	100	100	100			
CS(=O)(=O)Oc1cccc2c1COC(c1csc(C3CCN(C(=O)Cn4nc(C(F)F)cc4C(F)F)CC3)n1)OC2 (stereo not drawn) [Compound 1-38, 4-[4-(6-methylsulfonyloxy-1,5-dihydro-3H-2,4-benzodioxepin-3-yl)-2-thiazolyl]-1-[2-[3,5-bis(difluoromethyl)-1H-pyrazole-1-yl]acetyl]piperidine]				100	100	100
COc1ccc(OS(C)(=O)=O)c2c1COC(c1csc(C3CCN(C(=O)Cn4nc(C(F)F)cc4C(F)F)CC3)n1)OC2 (stereo not drawn) [Compound 1-39, 4-[4-(6-methoxy-9-methylsulfonyloxy-1,5-dihydro-3H-2,4-benzodioxepin-3-yl)-2-thiazolyl]-1-[2-[3,5-bis(difluoromethyl)-1H-pyrazole-1-yl]acetyl]piperidine]				100	100	100
O=C(Cn1nc(C(F)(F)F)cc1C(F)(F)F)N1CCC(c2nc(C3OCc4cccc(F)c4CO3)cs2)CC1 (stereo not drawn) [Compound 1-41]	100	100	100			
CS(=O)(=O)Oc1cccc2c1COC(c1csc(C3CCN(C(=O)Cn4nc(C(F)(F)F)cc4C(F)(F)F)CC3)n1)OC2 (stereo not drawn) [Compound 1-42, 4-[4-(6-methylsulfonyloxy-1,5-dihydro-3H-2,4-benzodioxepin-3-yl)-2-thiazolyl]-1-[2-[3,5-bis(trifluoromethyl)-1H-pyrazole-1-yl]acetyl]piperidine]				100	100	100
Cc1cc(C(F)(F)F)nn1CC(=O)N1CCC(c2nc(C3OCc4cccc(NS(C)(=O)=O)c4CO3)cs2)CC1 (stereo not drawn) [Compound 1-43]	100	80	100			
COc1ccc([N+](=O)[O-])c2c1COC(c1csc(C3CCN(C(=O)Cn4nc(C(F)(F)F)cc4C)CC3)n1)OC2 (stereo not drawn) [Compound 1-46]	100	100	100			
Cc1cc(C(F)(F)F)nn1CC(=O)N1CCC(c2nc(C3OCc4cccc(OS(=O)(=O)c5ccccc5)c4CO3)cs2)CC1 (stereo not drawn) [Compound 1-48]	100	100	100			
Cc1cc(C(F)(F)F)nn1CC(=O)N1CCC(c2nc(C3OCc4cccc(CO)c4CO3)cs2)CC1 (stereo not drawn) [Compound 1-52]	100	100	100			
